# Test results as given in patent US20090257988A1, “METHODS AND COMPOSITIONS FOR ACCELERATING THE GENERATION OF REGULATORY T CELLS EX VIVO” (USC Stevens, Hughes Center, priority 2008, published 2009).
# “Also recorded” adds a separate entry of the source.
# Assays:
# [1] = system: naïve CD4+ cells; experiment: FOXP3 expression by flow cytometry in naïve CD4+ cells stimulated with anti-CD3/CD28 beads; format: cell-based, human
# Excerpt: FIG. 1 is a typical example of FOXP3 expression at day 6 of cultures of non-regulatory T cells. In the experiments represented in this figure, naïve CD4+ cells were stimulated with 3/28 beads (1 bead per 10 T cells) with (right panel) or without (left panel) TGF-β for 6 days.
# This inhibitor blocks TGF-β type I receptor signaling. The figures in FIG. 2A provide data from flow cytometry analysis of stimulated CD4+ cells. Naïve CD4+ cells were stimulated with anti-CD3/CD28 beads for 5 or 6 days in medium only (left-most panel), in the presence of 5 ng/ml TGF-β (middle panel) or with 1 μM azacytidine (right-most panel). The graphs also show data from cells stimulated with and without ALK5i (10 μM).
# FIG. 3A provides flow cytometry data from naïve CD4 cells stimulated with anti-CD3/CD28 beads for 5 or 6 days in (in order of the panels from left to right) medium alone, in medium containing TGF-β, in medium containing azacytidine, and in medium containing azacytidine and TGF-β. The arrows indicate the […] after stimulation with anti-CD3/anti-CD28.
# Naïve CD4+ cells were stimulated with anti-CD3/28 beads as described above. […] FOXP3 expression among CD4+CD25+ cells was determined by flow cytometry. FIG. 5A is a bar graph showing the indicated mean±SEM for 5 independent experiments. FIG. 5B is representative of experiments in 0.1 μM ATRA.
# The traces identified with arrows indicate data from cells expressing FOXP3 after stimulation, and percentage of FOXP3 expressing cells is indicated in each figure.
# [2] = system: responder T cells; experiment: Suppressive activity of stimulated CD4+ cells on proliferation of CFSE-labeled responder T cells; format: cell-based, human; settings: FIG. 4; cells stimulated with vs without azacytidine; ratio 1:10 to responder cells, soluble anti-CD3, 3 days
# Description: Each population of stimulated cells was assayed for suppressive activity by culturing the cells with responder T cells labeled with carbofluorescein diacetate succinimydil ester (CFSE) at a ratio of 1:10. The cells were stimulated with soluble anti-CD3 for 3 days and proliferation of the responder cells was measured by dilution of CFSE.
# The induced Tregs were added to T respond cells (1:4 ratio) and suppressive activity was calculated.
# [3] = system: CD4+ cells; experiment: Proliferation of cultured CD4+ cells upon re-stimulation; format: cell-based, human; settings: after 6 days of culture
# Excerpt: A further phenotypic property of nTregs is poor proliferative responsiveness, which is often accompanied by lowered production of certain pro-proliferation cytokines, such as IL-2. Other cytokines, such as IL-4, IFNγ and TFN-α are also associated with proliferation, although they are generally produced in low levels even in proliferating cells. Proliferation response can be measured using methods known in the art, such as thymidine uptake assays and assays of carboxyfluorescein succinimidyl ester (CFSE) dilution.
# As discussed above, one phenotypic property of nTregs is poor proliferative responsiveness. Human naïve CD4+ cells stimulated with IL-2 and TGF-β become FOXP3+, but are only partially differentiated suppressor cells. […] Since the only source of pro-proliferative cytokines are the iTregs themselves, the lack of proliferation by azacytidine-treated cells is consistent with poor cytokine production, which is a distinguishing characteristic of nTregs.
# [4] = system: memory CD4+ cells (CD45RO+); experiment: Stimulation of memory CD4+ cells (CD45RO+) with or without azacytidine (Example 7); format: cell-based
# Description: In addition to naïve CD4+ cells (also referred to as CD45RA+ cells), memory CD4+ cells (CD45RO+) are stimulated and assessed for the effect of azacytidine and azacytidine+retinoic acid on their phenotypic properties. These memory CD4+ cells represent a resting but previously activated population. The cells are stimulated with anti-CD3/anti-CD28 beads (at 1 in 10) with or without azacytidine (1 μM), azacytidine combined with all-trans retinoic acid and also with or without TGF-β (5 ng/ml). After 6 days, the cells are depleted of stimulating beads and assayed for FOXP3 expression, suppressor activity and proliferative activity. Greater than 50% of the stimulated cells express FOXP3. Enhanced FOXP3 expression in cells cultured in medium alone may be due to TGF-β provided by non-T cells in the culture.
# Remaining cells are restimulated with anti-CD3/anti-CD28 (at 1 in 10) with or without fresh azacytidine and/or azacytidine plus retinoic acid, such that there is a group from each CD4+ subset that is exposed to azacytidine/azacytidine+retinoic acid for the first time. After a further 6 days, the cells are assayed again for FOXP3 expression, suppressor activity and proliferative activity.
# [5] = system: naïve CD4+ cells; experiment: Surface marker phenotype (CD45RO, CD103, CD127) of stimulated naïve CD4+ cells; format: cell-based, human; settings: FIG. 7; after 6 days of stimulation
# Description: Naïve T cells display the CD45RA+ marker and lack CD45RO. […] Finally, nTregs characteristically express the αEβ7 integrin (CD103) induced by TGF-β.
# [6] = system: naïve CD4+ cells; experiment: Membrane-bound TGF-β staining after re-stimulation of naïve CD4+ cells; format: cell-based, human; settings: FIG. 8; 6 days with agents, re-stimulated with anti-CD3/28 beads
# Excerpt: Naïve CD4+ cells were stimulated with agents indicated for 6 days and re-stimulated with anti-CD3/28 beads and stained with fluorochrome-conjugated anti-TGF-β for membrane-bound TGF-β.
# [7] = system: CD4+GFP-cells; experiment: FOXP3 induction in CD4+GFP- cells of GFP-FOXP3 mice (Example 10); format: cell-based; settings: CD4+GFP- cells sorted from GFP-FOXP3 mice
# Description: This assessment utilizes mice engineered to express a GFP-FOXP3 fusion protein. CD4+GFP-cells isolated by cell sorting are stimulated in the presence or absence of regulatory compositions containing azacytidine and regulatory compositions containing azacytidine and retinoic acid. Stimulation is also tested with such regulatory compositions with and without TGF-β. […] Purified populations of FOXP3+ cells are isolated by cell sorting. As a positive control, nTregs are also sorted from fresh spleens and lymph nodes. Both iTregs and nTregs cells (5×10^6) are injected into congenic CD45.1-mice. For the azacytidine-generated iTreg there are enough cells to have three to four mice per group. There are at least two mice per group for the nTregs. In some experiments, nTregs are expanded in culture to obtain sufficient numbers of cells.
# [8] = azacytidine 1 μM, after repeated stimulation
compound,measurement,setting,value
2′-Deoxy-5-azacytidine; 5-Aza-2′-deoxycytidine,FOXP3 expression (percentage of FOXP3 positive cells),"[1]; FIG. 2A, anti-CD3/CD28 beads 5 or 6 days, 1 μM azacytidine, no exogenous TGF-β, vs medium only",enhances FOXP3 expression to a similar extent as the enhancement seen with TGF-β; also recorded: markedly augments the percentage of FOXP3 positive cells
same,suppressive activity,[2],significantly more suppressive; also recorded: develop suppressive activity
same,proliferation upon re-stimulation,[3],fail to proliferate upon re-stimulation
same,FOXP3 expression vs total T cells stimulated without azacytidine,[4]; [8],markedly greater
same,suppressive activity vs total T cells stimulated without azacytidine,[4]; [8],markedly greater
"CC1=C(/C=C/C(C)=C/C=C/C(C)=C/C(=O)O)C(C)(C)CCC1 [retinoic acid, all-trans retinoic acid]",FOXP3 expression in stimulated CD4+ cells,"[1]; FIG. 5, retinoic acid added to TGF-β and azacytidine, ATRA 0.1-0.5 μM, 4 days, CD4+CD25+ cells",enhances FOXP3 expression
TGF-β,cells which express FOXP3,"[1]; FIG. 1, 3/28 beads (1 bead per 10 T cells), 6 days, with vs without TGF-β",twice as many cells which express FOXP3
same,cells that acquired the CD45RO marker,[5],50%
same,expression of membrane-bound TGF-β,[6],some T cells primed with TGF-β now expressed this cytokine on their cell surface; also recorded: some T cells contacted with TGF-β prior to stimulation now expressed this cytokine on their cell surface
same,proliferation of stimulated cells,"[4]; TGF-β 5 ng/ml, 6 days",hyperproliferative and expand markedly
same,FOXP3 expression,[7],induces FOXP3 expression
